From patent US20070059264A1, “Reduction of hair growth” (priority 2005, published 2007) come the findings set out here.

In the test the test system is axillary (armpit) hair growth. Kind of test: Axillary hair growth reduction in human subjects (hair length by image analysis). The class given is in vivo. To be noted: for Hair Length (μm): Example 1 including 3% DFMO once a day to armpit, six human subjects; for % Reduction (hair length): Example 1 including 3% DFMO vs Right Guard roll-on vehicle. The protocol: Example 1, including 3% DFMO, was tested in six human subjects to determine the effectiveness of the composition for reducing hair growth. The composition was applied once a day to one armpit in a subject; Right Guard® roll-on product was applied once daily to the other armpit. The hair length measurements were made at select time intervals using a semi automated image analysis system. For these measurements, the subjects shaved both armpits and then digital images of the treatment areas (DFMO and Vehicle) were taken at 24, 48, and 72 hr later. The number of hairs measured per site ranged from 58 to 87.
The results after six weeks and 16 weeks are shown below.

[1] abbreviates: after 6 weeks, 24 Hrs after shaving.
The mark [2] stands for this setting: after 6 weeks, 48 Hrs after shaving.
The mark [3] stands for this setting: after 6 weeks, 72 Hrs after shaving.
The mark [4] stands for this setting: after 16 weeks, 24 Hrs after shaving.
Setting [5] is: after 16 weeks, 48 Hrs after shaving.
Where [6] appears, read: after 16 weeks, 72 Hrs after shaving.

`NCCCC(N)(C(=O)O)C(F)F` (stereo not drawn) [DFMO, α-Difluoromethylomithine]: the “Hair Length (μm)” value came to 274 ± 15 μm under setting [1]; 509 ± 26 μm under setting [2]; 867 ± 34 μm under setting [3]; 170 ± 16 μm under setting [4]; 273 ± 23 μm under setting [5]; 326 ± 24 μm under setting [6]. Also, the “% Reduction (hair length)” value is recorded as 48 ± 3% under setting [1]; 49 ± 3% under setting [2]; 46 ± 2% under setting [3]; 66 ± 3% under setting [4]; 73 ± 3% under setting [5]; 75 ± 2% under setting [6].
